# Laboratory results taken from patent publication US12324802B2, “Modulators of cystic fibrosis transmembrane conductance regulator” (Vertex Pharmaceuticals Incorporated, priority 2020, dated 2025).
# Like-named read-outs stand apart in the source and are kept apart here.
# Legend:
# [1] = from CC(C)(C)OC(=O)NCC(C)(C)OCCC[C@@](OCc1ccccc1)(c1nnc(-c2nc(Cl)c(C(F)(F)F)cc2[N+](=O)[O-])o1)C(F)(F)F; snar bond; 14-membered ring; TFA; then DIEA; DCM; 0.96 mM; 25.0 °C; 2 steps
# [2] = not given; remark: listed apart in the source
compound,measurement,setting,value
CC1(C)CNc2nc(c([N+](=O)[O-])cc2C(F)(F)F)C2=NN=C(O2)[C@@](OCc2ccccc2)(C(F)(F)F)CCCO1,"ring closure, crude yield",[1],99%
CN1CCN(C)c2nc(c(NC(=O)OC(C)(C)C)cc2C(F)(F)F)C2=NN=C(O2)C(OCc2ccccc2)(C(F)(F)F)CCC1=O (stereo not drawn),"ring closure, yield after HPLC","from CNCCN(C)c1nc(-c2nnc(C(CCC(=O)O)(OCc3ccccc3)C(F)(F)F)o2)c(NC(=O)OC(C)(C)C)cc1C(F)(F)F, amide bond, 14-membered ring, HATU/DIEA, DMF, 9.16 mM, 25.0 °C, 3.0 h",70%
"6-benzyloxy-12,12-dimethyl-17-nitro-6,15-bis(trifluoromethyl)-19-oxa-3,4,13,18-tetrazatricyclo[12.3.1.12,5]nonadeca-1(18),2,4,8,14,16-hexaen-7-ol (E/Z olefin mixture, cis diol)","ring closure, yield after HPLC","rcm bond, 14-membered ring, Zhan catalyst-1B, 70.0 °C",49%
CC(=O)OC1C=CC[C@](OCc2ccccc2)(C(F)(F)F)C2=NN=C(O2)c2nc(c(C(F)(F)F)cc2[N+](=O)[O-])NC(C)(C)C1 (mixture of isomers),"ring closure, isolated yield","[2]; from C=CC[C@@](OCc1ccccc1)(c1nnc(-c2nc(NC(C)(C)CC(C=C)OC(C)=O)c(C(F)(F)F)cc2[N+](=O)[O-])o1)C(F)(F)F, rcm bond, 14-membered ring, Zhan catalyst-1B, toluene, 10.6 mM, 110.0 °C, 19.0 h",20%
CC(C)(C)OC(=O)N(C(=O)OC(C)(C)C)c1cc(C(F)(F)F)c2nc1-c1nnc(o1)[C@@](OCc1ccccc1)(C(F)(F)F)CCC=CCC(c1ccccn1)N2 (mixture of isomers),"ring closure, isolated yield","[2]; from C=CCC[C@@](OCc1ccccc1)(c1nnc(-c2nc(NC(CC=C)c3ccccn3)c(C(F)(F)F)cc2N(C(=O)OC(C)(C)C)C(=O)OC(C)(C)C)o1)C(F)(F)F, rcm bond, 14-membered ring, Zhan catalyst-1B, DCE, 1.5 mM, 85.0 °C, 12.0 h",24%
CC(C)(C)OC(=O)Nc1cc(C(F)(F)F)c2nc1-c1nnc(o1)C(OCc1ccccc1)(C(F)(F)F)CC=CC[C@@H]1CCCN21 (mixture of isomers),"ring closure, isolated yield","[2]; from C=CC[C@@H]1CCCN1c1nc(-c2nnc(C(CC=C)(OCc3ccccc3)C(F)(F)F)o2)c(NC(=O)OC(C)(C)C)cc1C(F)(F)F, rcm bond, 13-membered ring, Zhan-1B (two charges), DCE, 6.47 mM, 80.0 °C, 36.0 h",6.5%
CC(C)(C)OC(=O)Nc1cc(C(F)(F)F)c2nc1-c1nnc(o1)C(OCc1ccccc1)(C(F)(F)F)CCC=CC1CCCN21 (mixture of isomers),"ring closure, yield after HPLC","from C=CCCC(OCc1ccccc1)(c1nnc(-c2nc(N3CCCC3C=C)c(C(F)(F)F)cc2NC(=O)OC(C)(C)C)o1)C(F)(F)F, rcm bond, 13-membered ring, Zhan-1B (two charges), DCE, 6.25 mM, 85.0 °C, 23.0 h",3%
CC(C)(C)OC(=O)Nc1cc(C(F)(F)F)c2nc1-c1nnc(o1)[C@@](O)(C(F)(F)F)c1cc(ccc1F)C=CC[C@@H]1CCCN21 (mixture of isomers),"ring closure, isolated yield","[2]; from C=CC[C@@H]1CCCN1c1nc(-c2nnc([C@](O)(c3cc(I)ccc3F)C(F)(F)F)o2)c(NC(=O)OC(C)(C)C)cc1C(F)(F)F, cc_pd bond, 15-membered ring, Pd(OAc)2/P(o-tol)3/Et3N, MeCN, 9.5 mM, 80.0 °C, 22.0 h",58%
CC(C)(C)OC(=O)Nc1cc(C(F)(F)F)c2nc1-c1nnc(o1)[C@](O)(C(F)(F)F)c1cc(ccc1F)C=CC[C@@H]1CCCN21 (mixture of isomers),"ring closure, isolated yield","[2]; from C=CC[C@@H]1CCCN1c1nc(-c2nnc([C@@](O)(c3cc(I)ccc3F)C(F)(F)F)o2)c(NC(=O)OC(C)(C)C)cc1C(F)(F)F, cc_pd bond, 15-membered ring, Pd(OAc)2/P(o-tol)3/Et3N, MeCN, 9.5 mM, 80.0 °C, 22.0 h",56%
CC1(C)CC=CCC[C@](OCc2ccccc2)(C(F)(F)F)C2=NN=C(O2)c2nc(c(C(F)(F)F)cc2[N+](=O)[O-])N1 (mixture of isomers),"ring closure, isolated yield","[2]; from [2H]C([2H])([2H])C(CC=C)(Nc1nc(-c2nnc([C@@](CCC=C)(OCc3ccccc3)C(F)(F)F)o2)c([N+](=O)[O-])cc1C(F)(F)F)C([2H])([2H])[2H], rcm bond, 14-membered ring, Zhan catalyst-1B, DCE, 11.0 mM, 75.0 °C, 3.0 h",37.8%
CC1(C)CCC=CC[C@](OCc2ccccc2)(C(F)(F)F)C2=NN=C(O2)c2nc(c(C(F)F)cc2[N+](=O)[O-])N1 (mixture of isomers),"ring closure, yield after HPLC","from C=CCCC(C)(C)Nc1nc(-c2nnc([C@@](CC=C)(OCc3ccccc3)C(F)(F)F)o2)c([N+](=O)[O-])cc1C(F)F, rcm bond, 14-membered ring, Zhan catalyst-1B, DCE, 5.67 mM, 65.0 °C, 4.5 h",20%
O=[N+]([O-])c1cc(C(F)(F)F)c2nc1-c1nnc(o1)-c1c(cccc1OCc1ccccc1)CC=CC[C@@H]1CCCN21 (mixture of isomers),"ring closure, isolated yield","[2]; from C=CCc1cccc(OCc2ccccc2)c1-c1nnc(-c2nc(N3CCC[C@H]3CC=C)c(C(F)(F)F)cc2[N+](=O)[O-])o1, rcm bond, 14-membered ring, Zhan-1B, DCE, 7.24 mM, 70.0 °C, 5.0 h",26%
O=[N+]([O-])c1cc(C(F)(F)F)c2nc1-c1nnc(o1)[C@@](OCc1ccccc1)(C(F)(F)F)CCC=CCC(Cc1ccccc1)N2 (mixture of isomers),"ring closure, isolated yield","[2]; from C=CCC[C@@](OCc1ccccc1)(c1nnc(-c2nc(NC(CC=C)Cc3ccccc3)c(C(F)(F)F)cc2[N+](=O)[O-])o1)C(F)(F)F, rcm bond, 14-membered ring, Zhan catalyst-1B, DCE, 9.18 mM, 75.0 °C, 2.0 h",19%
O=[N+]([O-])c1cc(C(F)(F)F)c2nc1-c1nnc(o1)[C@@](OCc1ccccc1)(C(F)(F)F)CCC=CCC(c1ncccn1)N2 (mixture of isomers),"ring closure, isolated yield","[2]; from C=CCC[C@@](OCc1ccccc1)(c1nnc(-c2nc(NC(CC=C)c3ncccn3)c(C(F)(F)F)cc2[N+](=O)[O-])o1)C(F)(F)F, rcm bond, 14-membered ring, Zhan catalyst-1B, DCE, 2.66 mM, 83.0 °C, 16.0 h",49%
"(6R)-6-benzyloxy-17-(tert-butoxycarbonylamino)-6,15-bis(trifluoromethyl)-19-oxa-3,4,13,18-tetrazatricyclo[12.3.1.12,5]nonadeca-1(17),2,4,9,14(18),15-hexaene-12-carboxylic acid (E/Z mixture)","ring closure, isolated yield","[2]; rcm bond, 14-membered ring, Zhan catalyst-1B, then LiOH, DCE, 0.99 mM, 75.0 °C, 2 steps",21%
